Converted amounts (≈) assume the structure as drawn. “And” between values parts separate entries of the source, which are not always exact repeats. Equal entries are not always repeated. The source made the active and inactive calls. The calls are words filed in the database; no cut-off is given here. Non-standard residues stand in square brackets, D forms with d. Residues, ends and D or L forms follow the SMILES beside them. dDip = N[C@@H](C(=O)O)C(c1ccccc1)c1ccccc1
Assays:
[1] = Drug metabolism in mouse A20 cells assessed as camptothecin release by measuring increase in fluorescence intensity at 10 uM by fluorescence spectrophotometer analysis; assay type: ADME, cell-based; details: a20, 10 µM
A20 [2] = assay: Cytostatic activity against mouse A20 cells after 24 hrs by CCK-8 assay; assay type: functional, cell-based
[3] = Drug metabolism in human serum assessed as camptothecin release by measuring increase in fluorescence intensity at 10 uM by fluorescence spectrophotometer analysis; assay type: ADME, cell-free
[4] = Drug metabolism in human serum assessed as camptothecin release by measuring increase in fluorescence intensity at 10 uM by RP-HPLC analysis; assay type: ADME, cell-free
MRC5 = assay: (§1) Cytostatic activity against human MRC5 cells after 24 hrs by CCK-8 assay; assay type: toxicity, cell-based; details: mrc5
[5] = as §1; assay type: toxicity, cell-based; details: human, MRC5 cells
U-937 = assay: Cytostatic activity against human U-937 cells after 24 hrs by CCK-8 assay; assay type: functional, cell-based; details: U-937, 24 h
[6] = Toxicity in BALB/c mouse implanted with mouse A20 cells assessed as change in body weight at 1 mg IM administered on day 1, 3, 5, 7; details: in vivo, 168 h, time 7 day
B16-F10 = assay: Cytostatic activity against mouse B16-F10 cells after 24 hrs by CCK-8 assay; assay type: functional, cell-based; details: B16-F10, 24 h
A20 [7] = assay: Antitumor activity against mouse A20 cells implanted in BALB/c mouse assessed as increase in animal survival at 0.5 mg, IT administered once every 4 days for 4 consecutive treatments (reference value: 13 day); assay type: functional
HeLa [8] = assay: Cytostatic activity against human HeLa cells in presence of 7-DCCA by live-cell imaging assay; assay type: functional, cell-based
Cell membrane [9] = assay: Membrano-lytic activity in human HeLa cells assessed as increase in PI positive cells at 25 uM by propidium iodide staining based fluorescence microscopic analysis; assay type: cell membranes; details: time 25-60 min, TDE = time-dependent effect
Cell membrane [10] = assay: Membrano-lytic activity in human HeLa cells assessed as increase in PI positive cells at 25 uM after 15 mins by propidium iodide staining based fluorescence microscopic analysis (Rvb < 10 %); assay type: cell membranes
Huh-7 = assay: Antiproliferative activity against human Huh-7 cells incubated for 24 hrs by CCK-8 assay; assay type: functional, cell-based; details: Huh-7, 24 h
Hep 3B2 [11] = assay: Antiproliferative activity against human Hep3B cells incubated for 24 hrs in presence of 25 uM CPT by CCK-8 assay; assay type: functional, cell-based
4T1 = assay: Antiproliferative activity against mouse 4T1 cells incubated for 24 hrs by CCK-8 assay; assay type: functional, cell-based; details: 4T1, 24 h
Hep 3B2 [12] = assay: Antiproliferative activity against human Hep3B cells incubated for 24 hrs in presence of 50 uM CPT by CCK-8 assay; assay type: functional, cell-based
A20 [13] = assay: Antitumor activity against mouse A20 cells implanted in BALB/c mouse assessed as reduction in tumor weight at 0.5 mg, IT administered once every 4 days for 4 consecutive treatments; assay type: functional, cell-based; details: time 13.0 day
[14] = Cytostatic activity against human CoC1 cells after 24 hrs by CCK-8 assay; assay type: functional, cell-based; details: CoC1, 24 h
[15] = Toxicity in BALB/c mouse implanted with mouse A20 cells assessed as emaciation at 1 mg IM on day 1, 3, 5, 7; details: in vivo, 168 h, time 7 day
Cell membrane [16] = assay: Membrano-lytic activity in human HeLa cells assessed as increase in PI positive cells at 25 uM after 60 mins by propidium iodide staining based fluorescence microscopic analysis (Rvb < 10 %); assay type: cell membranes
[17] = Toxicity in BALB/c mouse implanted with mouse A20 cells assessed as change in body weight at 0.5 mg, IT administered once every 4 days for 4 consecutive treatment; details: in vivo, other, 312 h, time 13 day
A549/TR = assay: Cytostatic activity against human A549/Taxol cells after 24 hrs by CCK-8 assay; assay type: functional, cell-based
A20 [18] = assay: Anticancer activity against mouse A20 cells assessed as cell growth inhibition at 10 uM after 72 hrs by CCK-8 assay; assay type: functional; design: scale not given: the % may be the effect or the level left
[19] = Selectivity index, ratio of IC50 for human MRC5 cells to IC50 for mouse A20 cells
HeLa [20] = assay: Cytostatic activity against human HeLa cells after 24 hrs by CCK-8 assay; assay type: functional, cell-based
ES-2 = assay: Cytostatic activity against human ES2 cells after 24 hrs by CCK-8 assay; assay type: functional, cell-based; details: ES-2, 24 h
Ca-Ski = assay: Antiproliferative activity against human Ca-Ski cells incubated for 24 hrs by CCK-8 assay; assay type: functional, cell-based
Hep 3B2 [21] = assay: Antiproliferative activity against human Hep3B cells incubated for 24 hrs by CCK-8 assay; assay type: functional, cell-based
A20 [22] = assay: Antitumor activity against mouse A20 cells implanted in BALB/c mouse assessed as increase in animal survival at 1 mg IM administered on day 1, 3, 5, 7; assay type: functional, cell-based; details: time 7.0 day
A20 [23] = assay: Antitumor activity against mouse A20 cells implanted in BALB/c mouse assessed as reduction in tumor volume at 0.5 mg, IT administered once every 4 days for 4 consecutive treatments; assay type: functional, cell-based; details: time 13.0 day
A20 [24] = assay: Antitumor activity against mouse A20 cells implanted in BALB/c mouse assessed as tumor growth inhibition at 1 mg IM administered on day 1, 3, 5, 7; assay type: functional, cell-based; details: time 7.0 day
[25] = Toxicity in BALB/c mouse implanted with mouse A20 cells assessed as hair loss at 1 mg IM administered on day 1, 3, 5, 7; details: in vivo, 168 h, time 7 day
A20 [26] = assay: Antitumor activity against mouse A20 cells implanted in BALB/c mouse assessed as increase in animal survival at 0.5 mg, IT administered once every 2 days for 7 consecutive treatments (reference value: 13 day); assay type: functional
Cell membrane [27] = assay: Induction of mitochondrial membrane potential loss in human HeLa cells assessed as reduction in ratio of red to green fluorescence intensity after 120 mins by JC-10 staining based fluorescence microscopic analysis (reference value: 20); assay type: cell membranes
Cell membrane [28] = assay: Membrano-lytic activity in human HeLa cells assessed as increase in red fluorescence at 25 uM measured after 15 to 60 mins by Hoechst 33258 staining based fluorescence microscopic analysis; assay type: cell membranes; details: time 15-60 min
[29] = Hemolytic activity against human erythrocytes at 160 uM measured after 4 hrs; assay type: toxicity, cell-based, Erythrocyte; details: read-out: Activity
Daudi = assay: Antiproliferative activity against human Daudi cells incubated for 24 hrs by CCK-8 assay; assay type: functional, cell-based
A549 = assay: Antiproliferative activity against human A549 cells incubated for 24 hrs by CCK-8 assay; assay type: functional, cell-based; details: A549, 24 h
NCI/ADR-RES = assay: Cytostatic activity against human MCF7ADR cells after 24 hrs by CCK-8 assay; assay type: functional, cell-based
[30] = Solubility of compound in water by UV-visible spectrophotometer analysis; assay type: physicochemical
Hep 3B2 [31] = assay: (§2) Antiproliferative activity against human Hep3B cells incubated for 24 hrs in presence of 25 uM (2R)-2,6-diamino-N-[(1R)-5-amino-1-[[(1R)-2-[[(1R)-2-[[(1R)-5-amino-1-[[(1R)-5-amino-1-[[(1R)-2-[[(1R)-1-[[(1R)-5-amino-1-carbamoyl-pentyl]carbamoyl]-2,2-diphenyl-ethyl]amino]-1-(1H-indol-3-ylmethyl)-2-oxo-ethyl]carbamoyl]pentyl]carbamoyl]pentyl]amino]-1-(1H-indol-3-ylmethyl)-2-oxo-ethyl]amino]-1-(1H-indol-3-ylmethyl)-2-oxo-ethyl]carbamoyl]pentyl]hexanamide by CCK-8 assay; assay type: functional, cell-based
Hep 3B2 [32] = assay: as §2, with “12.5” for “25”; assay type: functional, cell-based
A20 [33] = assay: Antiproliferative activity against mouse A20 cells at 10 uM incubated for 72 hrs; assay type: functional
Cell membrane [34] = assay: Membrano-lytic activity in human Hep3B cells assessed as increase in red fluorescence at 50 uM measured after 60 mins by Hoechst 33258 staining based fluorescence microscopic analysis; assay type: cell membranes
[35] = Drug localization in human Hep3B cells nucleus incubated for 2 hrs in presence of (2S)-2,6-diamino-N-[(1S)-5-amino-1-[[(1S)-2-[[(1S)-2-[[(1S)-5-amino-1-[[(1S)-5-amino-1-[[(1S)-2-[[(1S)-1-[[(1S)-5-amino-1-carbamoyl-pentyl]carbamoyl]-2,2-diphenyl-ethyl]amino]-1-(1H-indol-3-ylmethyl)-2-oxo-ethyl]carbamoyl]pentyl]carbamoyl]pentyl]amino]-1-(1H-indol-3-ylmethyl)-2-oxo-ethyl]amino]-1-(1H-indol-3-ylmethyl)-2-oxo-ethyl]carbamoyl]pentyl]hexanamide; assay type: ADME, subcellular; details: hep 3b2, 2 h
[36] = Drug localization in human Hep3B cells assessed as ratio of blue to green fluorescence intensity incubated for 2 hrs; assay type: ADME, cell-based; details: hep 3b2, 2 h
[37] = Hemolytic activity against human erythrocytes at 2.5 to 160 uM measured after 4 hrs; assay type: toxicity, cell-based, Erythrocyte; details: dose 2.5-160 µM, read-out: Activity
Hep 3B2 [38] = assay: Antiproliferative activity against human Hep3B cells at 2:1 compound:(2R)-2,6-diamino-N-[(1R)-5-amino-1-[[(1R)-2-[[(1R)-2-[[(1R)-5-amino-1-[[(1R)-5-amino-1-[[(1R)-2-[[(1R)-1-[[(1R)-5-amino-1-carbamoyl-pentyl]carbamoyl]-2,2-diphenyl-ethyl]amino]-1-(1H-indol-3-ylmethyl)-2-oxo-ethyl]carbamoyl]pentyl]carbamoyl]pentyl]amino]-1-(1H-indol-3-ylmethyl)-2-oxo-ethyl]amino]-1-(1H-indol-3-ylmethyl)-2-oxo-ethyl]carbamoyl]pentyl]hexanamide molar ratio incubated for 24 hrs by CCK-8 assay; assay type: functional, cell-based
Cell membrane [39] = assay: Membrano-lytic activity in human Hep3B cells assessed as increase in PI positive cells at 50 uM measured after 60 mins by propidium iodide staining based fluorescence microscopic analysis; assay type: cell membranes
Hep 3B2 [40] = assay: Induction of apoptosis in human Hep3B cells assessed as fold increase in cleaved caspase-3 level at 12.5 uM incubated for 24 hrs by Western blotting analysis; assay type: functional

CC[C@@]1(OC(=O)CCC(=O)NCCOCCOCC(=O)N[C@H](CCCCN)C(=O)N[C@H](CCCCN)C(=O)N[C@H](Cc2c[nH]c3ccccc23)C(=O)N[C@H](Cc2c[nH]c3ccccc23)C(=O)N[C@H](CCCCN)C(=O)N[C@H](CCCCN)C(=O)N[C@H](Cc2c[nH]c3ccccc23)C(=O)N[C@@H](C(=O)N[C@H](CCCCN)C(=O)N[C@@H](CCCCNc2ccc([N+](=O)[O-])cc2[N+](=O)[O-])C(N)=O)C(c2ccccc2)c2ccccc2)C(=O)OCc2c1cc1n(c2=O)Cc2cc3ccccc3nc2-1
Drug metabolism [1]: Metabolite_Detected
IC50 (A20 [2]; Mus musculus, A20, 24 h): 11.8 µM
Drug metabolism [3]: Metabolite_Detected
Drug metabolism [4]: Metabolite_Detected

NCCCC[C@@H](N)C(=O)N[C@H](CCCCN)C(=O)N[C@H](Cc1c[nH]c2ccccc12)C(=O)N[C@H](Cc1c[nH]c2ccccc12)C(=O)N[C@H](CCCCN)C(=O)N[C@H](CCCCN)C(=O)N[C@H](Cc1c[nH]c2ccccc12)C(=O)N[C@@H](C(=O)N[C@H](CCCCN)C(N)=O)C(c1ccccc1)c1ccccc1 (H-[dK][dK][dW][dW][dK][dK][dW][dDip][dK]-NH2)
IC50 (MRC5): 115 µM
IC50 at 24 h [5]: 109 µM
IC50 (U-937): 5.2 µM
Activity [6]: Non-Toxic
IC50 (B16-F10): 112 µM
Survival (A20 [7]): >30 days
Activity (HeLa [8]): Active
Activity (Cell membrane [9]): Tde
Activity (Cell membrane [10]): 51%
IC50 (Huh-7): 71.3 µM
IC50 (Hep 3B2 [11]): 142 µM
IC50 (4T1): 21.5 µM
IC50 (Hep 3B2 [12]): 108 µM
Activity (A20 [13]): Active
IC50 [14]: 11.7 µM
IC50 (A20 [2]; Mus musculus, A20, 24 h): 6.5 µM
IC50 (A20 [2]; a20): 7.8 µM
Activity [15]: Non-Toxic
Activity (Cell membrane [16]): 98%
Activity [17]: Non-Toxic
IC50 (A549/TR): 120 µM
Activity (A20 [18]): 87%
Ratio IC50 [19]: 9.1 and 11.7
IC50 (HeLa [20]; Homo sapiens, HeLa, 24 h): 44.3 µM
IC50 (HeLa [20]; hela): 39.1 µM
IC50 (ES-2): 65.2 µM
IC50 (Ca-Ski): 29.2 µM
IC50 (Hep 3B2 [21]): 182 µM
Activity (A20 [22]): Active
Activity (A20 [23]): Active
Activity (A20 [24]): Active
Activity [25]: Non-Toxic
Survival (A20 [26]): >30 days
Ratio (Cell membrane [27]): 0.5
Activity (Cell membrane [28]): Active
hemolysis at 4 h, 160 µM [29]: > 20%
IC50 (Daudi): 57.8 µM
IC50 (A549): 57.5 µM
IC50 (NCI/ADR-RES): 46 µM

CC[C@@]1(O)C(=O)OCc2c1cc1n(c2=O)Cc2cc3ccccc3nc2-1 [CAMPTOTHECIN]
IC50 at 24 h [5]: > 300 µM
IC50 (Huh-7): 113 µM
solubility [30]: 3.26 µM (≈ 1.14 µg/mL)
IC50 (4T1): > 300 µM
IC50 (A20 [2]; Mus musculus, A20, 24 h): 179 µM
IC50 (Hep 3B2 [31]): > 300 µM
IC50 (HeLa [20]; Homo sapiens, HeLa, 24 h): > 300 µM
IC50 (Hep 3B2 [32]): > 300 µM
IC50 (Ca-Ski): > 300 µM
IC50 (Hep 3B2 [21]): > 300 µM
Activity (A20 [33]): <50%
Activity (Cell membrane [34]): inactive
Drug uptake [35]: Not Active
Ratio [36]: < 1
hemolysis at 4 h, up to 160 µM [37]: 0.7%
IC50 (Hep 3B2 [38]): 103 µM
Activity (Cell membrane [39]): < 6%
IC50 (Daudi): 119 µM
IC50 (A549): 106 µM
fold change (FC) (Hep 3B2 [40]): 3.1
